Results reported in US10495796B2, “Near-infrared cut filter” (AGC INC., priority 2012, dated 2019).

Key:
[1] = Solubility of dye to organic solvent; type: physicochemical; settings: 50° C., mass % of the dye to the mass of the entire solution; for Solubility to organic solvent: MIBK: methyl isobutyl ketone
Experimental: Regarding the dyes (A11-1) to (A11-10) and (A11-20) to (A11-27) obtained above, solubility to organic solvent was evaluated as follows.
Three kinds of solvents, cyclohexanone, methyl isobutyl ketone (MIBK), toluene, were used as the organic solvent in the solubility test. Note that in Table 3, % is mass % of the dye to the mass of the entire solution. Further, the temperature of each organic solvent in the solubility test was 50° C.

[2] = Absorption characteristics: transmission spectrum of near-infrared absorbing layer of NIR filter (UV-visible spectrophotometer); type: physicochemical
Experimental: Further, the transmittance of the near-infrared absorbing layer can be measured by using an ultraviolet visible light spectrophotometer. For example, when the near-infrared absorbing layer is provided on a glass substrate, the transmittance is calculated by subtracting the transmittance of only the glass substrate. Note that the transmittance of light of the near-infrared absorbing layer refers to, unless otherwise stated, a ratio to light incident from a direction orthogonal to a main surface of a sample, the ratio of this light traveling straight inside the sample and transmitted to an opposite side. Further, when the transmittance is measured by making light incident from a direction other than the direction orthogonal to the main surface of the sample in the measurement of transmittance of light, an angle made by a straight line indicating the direction of the incident light to a line orthogonal to the main surface is called an incident angle.
In the condition (ii-3), the value calculated by nd(B)×(λa−λc) (hereinafter, this value may also be described as “Is value”) is a value to be an index indicating steepness of the absorption curve in the vicinity of the boundary between the visible light region and the near-infrared region with respect to a transmission spectrum of the near-infrared absorbing layer. When this value is 115 or less, the absorption curve in the vicinity of the boundary between the visible light region and the near-infrared region is steep with respect to the near-infrared absorbing layer, which can be said as preferable for the NIR filter.
That is, with respect to the transmission spectrum of the near-infrared absorbing layer, the smaller the difference (λa−λc) between the shortest wavelength λa with transmittance of 1% in the region of 650 nm to 800 nm and the wavelength λc with transmittance of 70% on a shorter wavelength side than the λa, the steeper the absorption curve in the vicinity of the boundary between the visible light region and the near-infrared region. Here, λa−λc also depends on a wavelength width having transmittance of 1% or less (λb−λa; λb is the longest wavelength with transmittance of 1% in the wavelength region of 650 nm to 800 nm). Accordingly, in order to compare and evaluate the steepness of the absorption curve in the above region of the transmission spectrum of the near-infrared absorbing layer, λb−λa is fixed to 30 nm. That is, λb−λa of the near-infrared absorbing layer which the present filter has is not limited to 30 nm.
Further, in the Is value, (λa−λc) is multiplied by the refractive index nd(B) of the transparent resin (B) contained in the near-infrared absorbing layer as a coefficient. This is to standardize the difference in steepness among resins.
Regarding transmittance (%/nm) of the NIR filters 1 to 109 obtained above, transmission spectra were measured and calculated by using an ultraviolet visible light spectrophotometer (U-4100 type spectrophotometer made by Hitachi High-Technologies Corporation). Analysis results of transmission spectra of the near-infrared absorbing layers which the NIR filters have are presented in Table 4, Table 5 and Table 6 for the NIR filters 1 to 25, 26 to 51, 52 to 75, respectively, and are presented in Table 7 and Table 8 for the NIR filters 76 to 94, 95 to 109, respectively. In Table 4 to Table 8, the ratios (parts by mass) of dyes to 100 parts by mass of the transparent resin (B) and film thicknesses of the near-infrared absorbing layers are described together.
Further, conditions of preferred transmission spectra of the near-infrared absorbing layers in the present filter and Is values obtained by the formula: nd(B)×(λa-λc) described in above (ii-3) are described in Table 4 to Table 8 together with λa in the condition (ii-1) and λb-λa in the condition (ii-2). Note that values described in Table 4 to Table 8 are values obtained by subtracting transmittance of a glass plate from transmittance of an NIR filter. […]

[3] = transparent resin acrylic resin BR50, nd(B) 1.56, film thickness 2.3 μm
[4] = transparent resin polycarbonate EP5000, nd(B) 1.63, film thickness 2.4 μm
[5] = transparent resin polycarbonate SP3810, nd(B) 1.63, film thickness 1.0 μm
[6] = transparent resin polycarbonate SP3810, nd(B) 1.63, film thickness 2.8 μm

Compound | Solubility to organic solvent: Cyclohexanone [1] | Solubility to organic solvent: MIBK [1] | Solubility to organic solvent: Toluene [1] | 430 nm to 600 nm Average transmittance [2, 3] [%] | Is value (nd(B)×(λa-λc)) [2, 3] | λa [2, 3] [nm] | λa − λc [2, 3] [nm] | λb [2, 3] [nm] | λb − λa [2, 3] [nm] | λc [2, 3] [nm] | λmax [2, 3] [nm] | 430 nm to 600 nm Average transmittance [2, 4] [%] | Is value (nd(B)×(λa-λc)) [2, 4] | λa [2, 4] [nm] | λa − λc [2, 4] [nm] | λb [2, 4] [nm] | λb − λa [2, 4] [nm] | λc [2, 4] [nm] | λmax [2, 4] [nm] | 430 nm to 600 nm Average transmittance [2, 5] [%] | further results
CCCCCCCC(=O)Nc1cc2c(cc1C1=C([O-])C(=c3cc4c(cc3NC(=O)CCCCCCC)=[N+](C)C(C)C4(C)C)C1=O)C(C)(C)C(C)N2C (stereo not drawn) [Example A11-24, reference compound] | 5.00% mass % | 1.00% mass % | 5.00% mass % | 93.7 | 132.7 | 688 | 85 | 718 | 30 | 603 | 705 | 95.9 | 120.8 | 694 | 69 | 724 | 30 | 620 | 710 | 95.2 | Is value (nd(B)×(λa-λc)) [2, 5]: 122.6; λa [2, 5]: 693 nm; λa − λc [2, 5]: 75 nm; λb [2, 5]: 723 nm; λb − λa [2, 5]: 30 nm; λc [2, 5]: 618 nm; λmax [2, 5]: 710 nm; 430 nm to 600 nm Average transmittance [2, 6]: 95.4%; Is value (nd(B)×(λa-λc)) [2, 6]: 119.3; λa [2, 6]: 694 nm; λa − λc [2, 6]: 73 nm; λb [2, 6]: 724 nm; λb − λa [2, 6]: 30 nm; λc [2, 6]: 621 nm; λmax [2, 6]: 710 nm
CCCC(CCC)C(=O)Nc1cc2c(cc1C1=C([O-])C(=c3cc4c(cc3NC(=O)C(CCC)CCC)=[N+](C)C(C)C4(C)C)C1=O)C(C)(C)C(C)N2C (stereo not drawn) [Example A11-1] | 10%< mass % | 2.50% mass % | 10%< mass % | 95.1 | 110.9 | 689 | 71 | 719 | 30 | 618 | 706 | 96.5 | 111.0 | 694 | 68 | 724 | 30 | 626 | 711 | 97.3 | Is value (nd(B)×(λa-λc)) [2, 5]: 112.8; λa [2, 5]: 694 nm; λa − λc [2, 5]: 69 nm; λb [2, 5]: 724 nm; λb − λa [2, 5]: 30 nm; λc [2, 5]: 625 nm; λmax [2, 5]: 706 nm; 430 nm to 600 nm Average transmittance [2, 6]: 96%; Is value (nd(B)×(λa-λc)) [2, 6]: 112.8; λa [2, 6]: 695 nm; λa − λc [2, 6]: 69 nm; λb [2, 6]: 725 nm; λb − λa [2, 6]: 30 nm; λc [2, 6]: 626 nm; λmax [2, 6]: 711 nm
CC(CCC(C(=O)Nc1cc2c(cc1C1=C([O-])C(=c3cc4c(cc3NC(=O)C(CCC(C)CC(C)(C)C)C(C)CC(C)(C)C)=[N+](C)C(C)C4(C)C)C1=O)C(C)(C)C(C)N2C)C(C)CC(C)(C)C)CC(C)(C)C (stereo not drawn) [Example A11-4] | 10%< mass % | 10%< mass % | 10%< mass % | 95 | 110.9 | 688 | 71 | 718 | 30 | 617 | 705 | 95.7 | 112.6 | 693 | 69 | 723 | 30 | 624 | 709 | 96.8 | Is value (nd(B)×(λa-λc)) [2, 5]: 112.8; λa [2, 5]: 693 nm; λa − λc [2, 5]: 69 nm; λb [2, 5]: 723 nm; λb − λa [2, 5]: 30 nm; λc [2, 5]: 624 nm; λmax [2, 5]: 705 nm; 430 nm to 600 nm Average transmittance [2, 6]: 95.9%; Is value (nd(B)×(λa-λc)) [2, 6]: 111.2; λa [2, 6]: 693 nm; λa − λc [2, 6]: 68 nm; λb [2, 6]: 723 nm; λb − λa [2, 6]: 30 nm; λc [2, 6]: 625 nm; λmax [2, 6]: 709 nm
